Laboratory results taken from ChEMBL document CHEMBL3603825, “Synthesis and evaluation of arylpiperazine-reverse amides as biased dopamine D3 receptor ligands” (Bioorg Med Chem, 2015).
Where “and” joins values, the source holds several entries; their conditions need not be identical. Identical values can stand only once.

Tests used:
D(2) dopamine receptor [1] = molecular target: T1, D(2) dopamine receptor (Homo sapiens, UniProt P14416); assay: Displacement of [3H]-sulpiride from human dopamine D2 receptor expressed in HEK293 cells at 100 nM after 150 mins by liquid scintillation counting; type: cell-based
T1 sequence (P14416 whole entry): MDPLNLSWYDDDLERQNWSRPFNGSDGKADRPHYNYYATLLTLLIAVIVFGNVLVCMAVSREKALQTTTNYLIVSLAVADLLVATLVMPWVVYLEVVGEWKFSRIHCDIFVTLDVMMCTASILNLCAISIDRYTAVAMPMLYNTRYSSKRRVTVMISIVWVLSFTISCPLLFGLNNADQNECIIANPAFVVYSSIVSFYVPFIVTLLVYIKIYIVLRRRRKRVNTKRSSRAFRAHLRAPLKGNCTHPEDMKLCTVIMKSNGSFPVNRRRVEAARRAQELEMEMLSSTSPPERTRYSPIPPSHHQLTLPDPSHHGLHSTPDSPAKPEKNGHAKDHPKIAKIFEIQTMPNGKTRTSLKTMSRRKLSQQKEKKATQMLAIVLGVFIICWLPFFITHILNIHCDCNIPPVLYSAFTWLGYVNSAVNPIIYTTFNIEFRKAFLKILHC

D(3) dopamine receptor [2] = molecular target: T2, D(3) dopamine receptor (Homo sapiens, UniProt P35462); assay: Displacement of [3H]-sulpiride from human dopamine D3 receptor expressed in HEK293 cells at 100 nM after 150 mins by liquid scintillation counting; type: cell-based
T2 sequence (P35462 whole entry): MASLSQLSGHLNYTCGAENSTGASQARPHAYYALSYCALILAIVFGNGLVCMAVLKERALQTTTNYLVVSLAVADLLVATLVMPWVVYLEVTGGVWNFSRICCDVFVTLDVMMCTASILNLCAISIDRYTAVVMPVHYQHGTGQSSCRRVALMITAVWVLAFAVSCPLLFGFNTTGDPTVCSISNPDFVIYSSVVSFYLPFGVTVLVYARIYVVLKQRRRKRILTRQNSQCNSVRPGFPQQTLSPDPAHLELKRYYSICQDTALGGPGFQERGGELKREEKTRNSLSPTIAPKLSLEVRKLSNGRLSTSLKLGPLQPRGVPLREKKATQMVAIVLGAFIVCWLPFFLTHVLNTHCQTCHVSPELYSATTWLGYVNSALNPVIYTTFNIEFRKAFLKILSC

D(3) dopamine receptor [3] = molecular target: T2, D(3) dopamine receptor; assay: Displacement of [3H]-sulpiride from human dopamine D3 receptor expressed in HEK293 cells after 150 mins by liquid scintillation counting; type: cell-based
D(2) dopamine receptor [4] = molecular target: T1, D(2) dopamine receptor; assay: Displacement of [3H]-sulpiride from human dopamine D2 receptor expressed in HEK293 cells after 150 mins by liquid scintillation counting; type: cell-based
Homo sapiens = species: Homo sapiens; assay: Selectivity ratio of Ki for human dopamine D2 receptor to Ki for human dopamine D3 receptor

Structure (SMILES) | inhibition (D(2) dopamine receptor [1]) | inhibition (D(3) dopamine receptor [2]) | Ki (D(3) dopamine receptor [3]) [nM] | Ki (D(2) dopamine receptor [4]) [nM] | Ratio Ki (Homo sapiens)
O=C(CCCCN1CCN(c2cccc(Cl)c2Cl)CC1)Nc1nc2ccccc2s1 | 30.1% and 6.9% | 34.8% and 12.8% | – | – | –
O=C(CCCCN1CCN(c2ccc(Cl)cc2)CC1)Nc1nc2ccccc2[nH]1 | 29.9% | 35.5% | – | – | –
O=C(CCCCN1CCN(c2ccccc2F)CC1)Nc1nc2ccccc2s1 | – | 75.1% and 63.1% | 3.9 | 175 | 45
O=C(CCCCN1CCN(c2cccc(C(F)(F)F)c2)CC1)Nc1nc2ccccc2[nH]1 | 34% and 14.3% | 27.7% and 34.9% | – | – | –
O=C(CCCCN1CCN(c2ccc(Cl)cc2)CC1)Nc1nc2ccc([N+](=O)[O-])cc2s1 | 30.2% | 45.2% | – | – | –
O=C(CCCCN1CCC(O)(c2ccc(Cl)cc2)CC1)Nc1nc2ccccc2s1 | 33.3% and 24.8% | 25.8% and 7.9% | – | – | –
O=C(CCCCN1CCN(c2ccc(Cl)cc2)CC1)Nc1nc2cc(Cl)ccc2o1 | -4.1% | 1.7% | – | – | –
O=C(CCCCN1CCN(c2ccc(Cl)cc2Cl)CC1)Nc1nc2ccccc2s1 | 14.5% and 15.2% | 46% and 48.3% | 87.6 | 5590 | 63.8
COc1ccc2nc(NC(=O)CCCCN3CCN(c4ccc(Cl)cc4)CC3)sc2c1 | – | – | 9.4 | 197 | 21
O=C(CCCCN1CCN(c2ccc(Cl)cc2)CC1)Nc1nc2ccccc2o1 | 40.9% | 56.1% | – | – | –
COc1ccc2nc(NC(=O)CCCCN3CCN(c4ccc(Cl)cc4F)CC3)sc2c1 | 3.1% and 2.6% | 33.4% and 28.7% | – | – | –
O=C(CCCCN1CCN(c2ccc(Cl)cc2)CC1)Nc1nc2ccc(Cl)cc2s1 | 7% and 11% | 30.3% and 26.2% | – | – | –
Cc1ccc2nc(NC(=O)CCCCN3CCN(c4ccc(Cl)cc4)CC3)sc2c1 | 1% | 13.4% | – | – | –
COc1ccc2nc(NC(=O)CCCCN3CCN(c4ccccc4Cl)CC3)sc2c1 | 78.8% and 54.5% | 60.5% and 81.6% | – | – | –
O=C(CCCCN1CCN(c2ccc(Cl)cc2)CC1)Nc1nc2ccccc2s1 | 57.3% | 65.2% | – | – | –
